Measured values published in patent US11707472B2, “Compositions for the treatment of fibrosis” (Viking Therapeutics, Inc., priority 2017, dated 2023).

Tests used:
Assay type in all cases: in vivo
[1] = test system: nude mice; experiment: palmar fascia fibrosis induced by Dupuytren's disease fibroblasts (second Example 2); conditions: nude mice forepaw biopsies, 6-10 weeks treatment; relative to levels prior to administration
Description: Palmar fascia fibrosis is induced in nude mice by introducing fibroblasts from fibrotic cords of Dupuytren's disease patients as described in Stish, L. et al., BMC Musculoskelet. Disord. 16: 138-148 (2015) which is hereby incorporated by reference with respect to its description of the establishment of an animal model system for the study of palmar fascia fibrosis. After the establishment of palmar fascia fibrosis in the fibroblast treated animals, test articles comprising any one of Compounds 1-4, or any other compound disclosed herein, are administered to each subject as appropriate for its formulation, daily or as appropriate, for 6-10 weeks. Unilateral forepaw biopsies are taken prior to the first administration of the test articles and again after sacrifice following the last administration of the test articles. Biopsy samples are analyzed as described in Example 1, with the addition of immunohistochemical staining for type I collagen. […] Mock treated animals show little or no reduction in fibrosis, hydroxyproline content, or Collagen III content.

[2] = test system: diet-induced NASH mouse model; experiment: diet-induced NASH mouse model, 8-week dosing (Example 6); set-up: reduction in fibrosis (fibrosis score) / reduction in type 1 collagen deposition / reduction in hydroxyproline / reduction of expression of pro-fibrotic gene Colla1 / reduction of expression of pro-fibrotic gene Col3a1 / reduction of expression of pro-fibrotic gene αSMA / reduction of expression of pro-fibrotic gene Galectin 1: concentration or dose not given beside the values; conditions: diet-induced NASH mice, oral dosing 8 weeks
Protocol: Compound 2 was evaluated in a diet-induced NASH mouse model (See, e.g., Hansen, H. et al., Drug Discovery Today 22(17):1701-1718 (2017) which is hereby incorporated by reference with respect to its disclosure of diet-induced, genetic, chemical, and other NASH mouse models). […] Animals were biopsied pre-study, and only animals with NASH and fibrosis were selected for study. Selected animals were acclimatized and randomized, with experimental groups of 11-12 animals per cohort receiving oral dosing of compound 2 according to the following schedules: Daily dosing for 8 weeks; or daily dosing for week 0-1 followed by weekly dosing for weeks 2-8. At week 8, animals were sacrificed and tissues analyzed. Plasma enzymes (P-ALT (alanine aminotransferase) and P-AST (aspartate aminotransferase)), total plasma triglycerides, and total plasma cholesterol were measured, and terminal necropsy of each liver was carried out, assaying total liver biochemistry including total liver triglycerides, and total liver cholesterol, as well as histological evaluation of NAFLD activity score (done pre- and post-treatment), fibrosis stage (also done pre- and post-treatment), steatosis, Colla1 level, and galactin-3 level. Tissue samples were preserved for characterization using RNAseq; RNAseq was used to determine expression levels for genes showing differential expression in compound 2-treated vs. vehicle treated animals and/or genes known to be implicated in fibrosis.

[3] = test system: Phosphorylase kinase deficient mice (PhKc−/−); experiment: GSD-8/9-like hepatic symptoms in PhKc-/- mice (Example 5); conditions: PhKc−/− mice liver biopsies, 6-10 weeks treatment; relative to levels prior to administration
Protocol: (§1) Phosphorylase kinase deficient mice that manifest GSD-8/9-like hepatic symptoms, including hypercholesterolemia and hyperlipidemia (PhKc−/−, see, e.g., Varsanyi, M. et al., Biochem. Genet. 18(3-4):247-61 (1980)), are treated with test articles comprising any one of Compounds 1-4, or any other compound disclosed herein, administered to each subject as appropriate for its formulation, daily or as appropriate, for 6-10 weeks. Liver biopsies are taken prior to the first administration of the test articles and again after sacrifice following the last administration of the test articles. […] Mock treated animals show little or no reduction in fibrosis, hydroxyproline content, or Collagen I content.

[4] = test system: male Dunkin-Hartley guinea pigs; experiment: bleomycin-induced pulmonary fibrosis (Example 2); conditions: guinea pig lung biopsies, 6-10 weeks treatment; relative to levels prior to administration
Protocol: Pulmonary fibrosis is induced in healthy male Dunkin-Hartley guinea pigs by administering bleomycin intratracheally. Control subjects are developed by intratracheal administration of saline solution. After the establishment of pulmonary fibrosis in the bleomycin treated animals, test articles comprising any one of Compounds 1-4, or any other compound disclosed herein, are administered to each subject as appropriate for its formulation, daily or as appropriate, for 6-10 weeks. Unilateral lung biopsies are taken prior to the first administration of the test articles and again after sacrifice following the last administration of the test articles. Biopsy samples are analyzed as described in Example I, with the addition of immunohistochemical staining for type III collagen. […] Mock treated animals show little or no reduction in fibrosis, hydroxyproline content, or Collagen III content.

[5] = test system: Sprague-Dawley Rats or C57BL mice; experiment: hypertrophic skin lesions induced by capsaicin, CCl4 and/or bleomycin (Example 3); conditions: rat or mouse skin biopsies, 6-10 weeks treatment; relative to levels prior to administration
Description: Hypertrophic skin lesions are induced in Sprague-Dawley Rats by subcutaneous injection of capsaicin as described in Wallengren, J. et al., Skin Pharm. Appl. Skin Physiol. 15(3):154-165 (2002), which is hereby incorporated by reference with respect to its description of the induction of hypertrophic skin lesions in rats; or in C57BL or other appropriate strain mice by subcutaneous administration of CCl4 and/or bleomycin, as described in Alonso-Merino et al., Proc. Nat. Acad. Sci. 113(24):E3451-60 (2016), which is incorporated herein for its disclosure of the induction of fibrotic skin lesions in mice. After the establishment of hypertrophic skin lesions in the capsaicin, CCl4 and/or bleomycin treated animals, test articles comprising any one of Compounds 1-4, or any other compound disclosed herein, are administered to each subject animal as appropriate for its formulation, daily or as appropriate, for 6-10 weeks. Skin biopsies from the injection site are taken prior to the first administration of the test articles and again after sacrifice following the last administration of the test articles. Biopsy samples are analyzed as described in Example I, with the addition of immunohistochemical staining for type III collagen. […] Mock treated animals show little or no reduction in fibrosis, hydroxyproline content, or Collagen III content.

[6] = test system: DIO-NASH mice; experiment: DIO-NASH mice, 8 weeks oral treatment, liver fibrosis readouts (Example 1); conditions: oral once per day; for liver Picro-Sirius Red (PSR) staining (total liver collagen 1 and 3 by morphometry): Compound 1 10 mg/kg; for proportion of animals with a reduction in fibrosis score post-treatment: vs mock treated animals
Protocol: DIO-NASH mice were acclimatized for 3 weeks, with pre-treatment liver biopsy samples collected prior to acclimatization. Mice were randomly assigned to one of five dosing groups, with 12 mice per group. Assigned dosages were: Compound 2 (low): 3 mg/kg; Compound 2 (high): 10 mg/kg; Compound 1: 10 mg/kg; and Elafibranor (30 mg·kg). One group was mock treated with vehicle only as a control. Dosage forms were administered orally once per day. After 8 weeks, animals were sacrificed and liver samples were taken. Liver samples were assayed for total liver hydroxyproline, and subjected to immunohistochemical observation for fibrosis stage as well as the extent of Cola1 (Collagen Type Ia) staining. […] Since hydroxyproline is a significant component of collagen, and collagen is the most significant source of hydroxyproline in animal tissues, levels of hydroxyproline provide a reliable proxy for the presence of collagen in a sample.
Terminal liver biopsy samples were also subjected to histochemical staining and immunohistochemical staining. Representative images of liver stained with Picro-Sirius Red (to visualize collagen I and III deposition, red stain) at the end of the treatment period following 8 weeks of treatment with vehicle, low dose Compound 2, high dose Compound 2, Compound 1, or elafibranor are shown in FIG. 2. […] Representative images of liver stained with anti-type I collagen (col1a1) (Southern Biotech, Cat. 131001) at the end of the treatment period following 8 weeks of treatment with vehicle, low dose Compound 2, high dose Compound 2, Compound 1, or elafibranor are shown in FIG. 3. The extent of ColA1 content was calculated as the total liver ColA1 staining in terminal liver biopsy samples.
Fibrosis scores were also calculated based on observation of terminal liver biopsy samples.

[7] = test system: Glucose-6-phosphatase-α deficient mice (Agl−/−); experiment: GSD-3-like hepatic symptoms in Agl-/- mice (Example 4); conditions: Agl−/− mice liver biopsies, 6-10 weeks treatment; relative to levels prior to administration
Protocol: as §1, with “Glucose-6-phosphatase-α” for “Phosphorylase kinase”, “GSD-3-like” for “GSD-8/9-like”, “(Agl−/−, see e.g. Liu, K.” for “(PhKc−/−, see, e.g., Varsanyi,”, “Mol.” for “Biochem.”, “Metabol. 111(4):467-76 (2014))” for “18(3-4):247-61 (1980)),”

[8] = liver RNAseq, FIG. 8, vs vehicle-treated controls
[9] = liver, FIG. 7, relative to pre-treatment samples
[10] = Compound 2 3 and 10 mg/kg, vs elafibranor (control) and vehicle (mock)

Q: With Cc1cc(OCP2(=O)OCC[C@@H](c3cccc(Cl)c3)O2)cc(C)c1Cc1ccc(O)c(C(C)C)c1 (stereo partly shown) [Compound 2] as the molecule, how does the “palmar fascia Collagen III staining” value [1] read?
A: decreased

Q: And the “palmar fascia fibrosis score” value [1]?
A: decreased

Q: And the “palmar fascia hydroxyproline levels” value [1]?
A: reduced levels

Q: And the “NAS scores (NAFLD activity score)” value [2]?
A: significant improvements

Q: What about the toxicity [2] of the same molecule?
A: No significant toxicity

Q: And the “reduction of total lipid content in the liver” value ([2]; FIG. 6, vs vehicle-treated controls)?
A: approximately 80%

Q: And the “reduction of expression of pro-fibrotic gene Col3a1” value [2, 8]?
A: 27.1%

Q: What about the “reduction of expression of pro-fibrotic gene Colla1” value [2, 8] of the same molecule?
A: 36.3%

Q: And the “reduction of expression of pro-fibrotic gene Galectin 1” value [2, 8]?
A: 64.7%

Q: And the “reduction of expression of pro-fibrotic gene αSMA” value [2, 8]?
A: 37%

Q: What about the “reduction in fibrosis (fibrosis score)” value [2, 9] of the same molecule?
A: 50.2%

Q: And the reduction in hydroxyproline [2, 9]?
A: 46.3%

Q: And the “reduction in type 1 collagen deposition” value [2, 9]?
A: 60.2%

Q: And the liver cholesterol ([2]; relative to untreated controls)?
A: Significant reductions

Q: And the liver triglycerides ([2]; relative to untreated controls)?
A: Significant reductions

Q: What about the “liver Collagen I staining” value [3] of the same molecule?
A: decreased

Q: And the liver fibrosis score [3]?
A: decreased

Q: And the liver hydroxyproline levels [3]?
A: reduced levels

Q: What about the “lung Collagen III staining” value [4] of the same molecule?
A: decreased

Q: What about the lung fibrosis score [4] of the same molecule?
A: decreased

Q: And the lung hydroxyproline levels [4]?
A: reduced levels

Q: What about the “injection site skin Collagen III staining” value [5] of the same molecule?
A: decreased

Q: And the “injection site skin fibrosis score” value [5]?
A: decreased

Q: What about the “injection site skin hydroxyproline levels” value [5] of the same molecule?
A: reduced levels

Q: And the “animals with increases in fibrosis score post-treatment” value [6]?
A: No Compound 2-treated animals showed increases

Q: What about the “liver Picro-Sirius Red (PSR) staining (total liver collagen 1 and 3 by morphometry)” value [6, 10] of the same molecule?
A: lower PSR staining than control-treated or mock-treated animals

Q: And the total liver hydroxyproline ([6]; Compound 2 3 mg/kg (low) and 10 mg/kg (high), vs elafibranor 30 mg/kg (control) and vehicle (mock))?
A: lower total liver hydroxyproline levels than control-treated or mock-treated animals

Q: And the “total liver ColA1 content (anti-type I collagen staining)” value ([6]; Compound 2 3 and 10 mg/kg, terminal liver biopsy, vs elafibranor (control) and vehicle (mock))?
A: lower total liver ColA1 content than control-treated or mock-treated animals

Q: And the “proportion of animals with a reduction in fibrosis score post-treatment” value [6]?
A: higher proportion

Q: And the “liver Collagen I staining” value [7]?
A: decreased

Q: What about the liver fibrosis score [7] of the same molecule?
A: decreased

Q: And the liver hydroxyproline levels [7]?
A: reduced levels

Q: For Cc1cc(OCP(=O)(OCOC(=O)C(C)(C)C)OCOC(=O)C(C)(C)C)cc(C)c1Cc1ccc(O)c(Cc2ccccc2)c1 [Compound 1], which “liver Picro-Sirius Red (PSR) staining (total liver collagen 1 and 3 by morphometry)” value [6, 10] is on record?
A: lower PSR staining than those from mock-treated animals

Q: And the “proportion of animals with a reduction in fibrosis score post-treatment” value [6]?
A: higher proportion
